From US20250204541A1, “GAS PHASE TREATMENT OF PRODUCE” (priority 2022, published 2025)
Entries after “also recorded” stand apart in the source; their conditions may differ.

Tests used:
[1] = tested on: Penicillium digitatum (Pd); test: Antifungal activity of vapor against Penicillium digitatum in wounded, infected mandarins; assay type: in vivo; details: for effect on Pd mold: airtight container, assessed after 6 days
Method: Example 4. The antifungal activity of a range of AITC vapor concentrations was tested against Pd in mandarins. All mandarins were wounded by puncturing with a screw and infected by dispensing 1000 Pd spores suspended in 10 μL of water in each wound. The fruit was then placed in an airtight container, a range of AITC volumes were disposed onto a Whatman filter paper disc, the disc was suspended in front of a battery-powered fan, and the container closed for 18 hours. The mandarins were then left at ambient temperature and high humidity for 6 days. The test groups were mandarins that were infected and untreated, and infected and treated with 62.5 μL, 125 μL, 250 μL, and 500 μL on the filter paper disc. […] FIG. 6 is a bar graph showing incidence (% infected) for the test groups.
Example 5. The antifungal activity of a range of AITC vapor exposure times was tested to determine the effects against Pd in mandarins. All samples were wounded by puncturing with a screw. Mandarins were infected by dispensing 1000 Pd spores suspended in 10 μL of water in the wound. The fruit was then placed in an airtight container, 125 μL of AITC was dispensed onto a Whatman filter paper disc, the disc suspended in front of a battery-powered fan, and the container closed for 15 minutes to 2 hours. The test groups were then left at ambient temperature, high humidity, and assessed for Pd mold after 6 days. The test groups consisted of mandarins that were: uninfected and untreated; infected and untreated; infected and treated with 0.5 g/L imazalil; infected, treated with 125 μL of AITC on the filter paper, and exposed to the vapor for 15 minutes, 30 minutes, 1 hour, and 2 hours.

[2] = tested on: mandarins; test: Visible appearance of vapor-treated mandarins; assay type: in vivo; details: 72 hours vapor of 3 mL in a Petri dish
Method: Example 1. The antifungal activity of diallyl disulfide (DADS) vapor against Penicillium digitatum (Pd) was tested in mandarins. All samples were wounded by puncturing with a screw and infected by dispensing 1000 Pd spores suspended in 10 μL of water into each wound. The test groups consisted of mandarins that were: untreated; dipped in a solution of 1 g/L of imazalil; and exposed for 72 hours to the vapor of 3 mL of DADS in a Petri dish.
Example 2. The antifungal activity of allyl isothiocyanate (AITC) and DADS vapor was tested against Pd and Penicillium italicum (Pi) in mandarins. All samples were wounded by puncturing with a screw. Mandarins were infected by dispensing either 1000 Pd spores or 1000 Pi spores suspended in 10 μL into the wound. The test groups consisted of mandarins that were: uninfected and untreated; uninfected and treated by dipping in a solution of 1 g/L of imazalil; infected with Pd and untreated; infected with Pd and exposed to AITC; infected with Pd and exposed to DADS; infected with Pi and untreated; infected with Pi and exposed to AITC; and infected with Pi and exposed to DADS. Exposure to AITC or DADS consisted of exposing the mandarins for 72 hours to the vapor of 3 mL of the respective compound dispensed in a Petri dish. […]
Example 5. […] The test groups were then left at ambient temperature, high humidity, and assessed for Pd mold after 6 days. […]

[3] = mandarins, 72 hours vapor of 3 mL in a Petri dish

| SMILES | inhibition of fungal growth ([1]; mandarins infected with Pd, 72 hours vapor of 3 mL in a Petri dish) | effect on Pd mold ([1]; mandarins, 125 μL on filter paper (730 ppm), 30 min exposure) | effect on Pd infection ([1]; mandarins, 125 μL on filter paper disc, airtight container with fan, 18 hours, then 6 days) | effect on Pd mold ([1]; mandarins, 125 μL on filter paper, 15 minute exposure) | effect on Pd mold ([1]; mandarins, 125 μL on filter paper, 1 hour exposure) | effect on Pd infection ([1]; mandarins, 250 μL on filter paper disc, airtight container with fan, 18 hours, then 6 days) | effect on Pd infection / mold growth [1, 3] | effect on Pd infection ([1]; mandarins, vapor of 500 μL in a Petri dish for 72 hours) | reduction of the incidence of Pd mold compared to the untreated samples ([1]; mandarins, exposed for 72 hours to the vapor of 3 mL in a Petri dish) | visible appearance of treated fruit [2] |
| --- | --- | --- | --- | --- | --- | --- | --- | --- | --- | --- |
| C=CCN=C=S [AITC, allyl isothiocyanate] | approximately 100% | greatly reduced severity of Pd mold infection | substantially prevented the growth mold | little effect on Pd mold | greatly reduced severity and incidence of Pd mold | substantially prevented the growth mold | substantially prevented | substantially prevented Pd infections |  |  |
| C=CCSSCC=C [DADS, diallyl disulfide] |  |  |  |  |  |  | substantially prevents Pd mold growth |  | 85% | no visible degradation or discoloration; also recorded: No difference in appearance |
